Reference: patent US9266883B2, “Ring-fused bicyclic pyridyl derivatives as FGFR4 inhibitors” (Novartis AG, priority 2013, dated 2016)
Read-outs that look alike come from different tables or passages of the source.

Tests used:
[1] = biological target: FGFR4 (GST-FGFR4(388-802)) (Homo sapiens (Human), UniProt P22455); test: In-vitro biochemical kinase assay for FGFR4 (Caliper microfluidic mobility shift)
[2] = biological target: Tel-FGFR4 (Homo sapiens (Human), UniProt P22455); test: In vitro cellular kinase assay for FGFR4 (BaF3-Tel-FGFR4 cells, MSD capture ELISA of tyrosine phosphorylation); assay type: cell-based
[3] = biochemical FGFR4 assay, read-out: Biochemical IC50
[4] = Cellular BaF3 FGFR4 assay, read-out: Cellular IC50
[5] = read-out: Biochemical FGFR4 IC50
[6] = BaF3-Tel-FGFR4 cells, 1 hour incubation, read-out: Cellular BaF3 FGFR4 IC50

Sequence of Tel-FGFR4 (P22455 other isoform, or with tags, fused parts or gaps): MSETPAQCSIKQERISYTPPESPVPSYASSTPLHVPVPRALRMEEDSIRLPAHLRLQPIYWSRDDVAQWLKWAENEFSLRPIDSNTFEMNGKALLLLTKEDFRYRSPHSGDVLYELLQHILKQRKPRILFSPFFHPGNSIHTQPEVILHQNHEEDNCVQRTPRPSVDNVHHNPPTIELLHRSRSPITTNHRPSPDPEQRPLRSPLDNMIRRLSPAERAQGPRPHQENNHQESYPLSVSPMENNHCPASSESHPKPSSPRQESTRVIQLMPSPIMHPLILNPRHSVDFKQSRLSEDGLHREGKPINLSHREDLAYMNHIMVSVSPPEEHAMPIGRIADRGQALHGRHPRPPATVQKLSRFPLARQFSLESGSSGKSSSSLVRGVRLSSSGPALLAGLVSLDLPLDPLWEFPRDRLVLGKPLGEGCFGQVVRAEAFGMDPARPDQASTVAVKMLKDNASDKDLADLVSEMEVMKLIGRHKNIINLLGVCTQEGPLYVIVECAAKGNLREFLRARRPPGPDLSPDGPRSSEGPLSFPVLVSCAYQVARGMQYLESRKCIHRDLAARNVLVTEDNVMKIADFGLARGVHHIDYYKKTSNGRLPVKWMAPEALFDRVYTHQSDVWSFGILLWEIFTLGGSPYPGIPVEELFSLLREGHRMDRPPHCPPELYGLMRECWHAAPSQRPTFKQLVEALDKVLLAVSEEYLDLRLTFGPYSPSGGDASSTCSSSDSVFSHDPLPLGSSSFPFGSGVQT
Sequence of FGFR4 (GST-FGFR4(388-802)) (P22455 388-802): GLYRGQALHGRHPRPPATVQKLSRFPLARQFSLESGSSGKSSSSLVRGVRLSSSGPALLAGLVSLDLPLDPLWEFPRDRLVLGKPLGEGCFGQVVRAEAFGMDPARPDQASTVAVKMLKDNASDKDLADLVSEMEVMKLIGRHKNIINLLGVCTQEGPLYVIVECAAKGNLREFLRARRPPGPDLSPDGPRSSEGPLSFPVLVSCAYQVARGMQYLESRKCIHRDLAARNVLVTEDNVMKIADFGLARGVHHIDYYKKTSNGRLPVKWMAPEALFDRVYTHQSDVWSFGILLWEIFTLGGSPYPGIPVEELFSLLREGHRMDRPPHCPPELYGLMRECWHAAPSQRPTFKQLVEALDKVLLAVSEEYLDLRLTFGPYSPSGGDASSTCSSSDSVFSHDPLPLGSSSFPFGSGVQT

CC(C)Oc1cc(NC(=O)N2CCCc3cc(CN4CCN(C)C(=O)C4)c(C=O)nc32)ncc1C#N [N-(5-cyano-4-isopropoxypyridin-2-yl)-7-formyl-6-((4-methyl-3-oxopiperazin-1-yl)methyl)-3,4-dihydro-1,8-naphthyridine-1(2H)-carboxamide]
IC50 [1, 3]: 1.7 nM
IC50 [2, 4]: 17 nM

COCCNc1cc(NC(=O)N2CCCc3cc(C4CCN(CC(F)F)CC4)c(C=O)nc32)ncc1C#N [Example 267, N-(5-cyano-4-((2-methoxyethyl)amino)pyridin-2-yl)-6-(1-(2,2-difluoroethyl)piperidin-4-yl)-7-formyl-3,4-dihydro-1,8-naphthyridine-1(2H)-carboxamide]
IC50 [1, 5]: 1.2 nM
IC50 [2, 6]: 16.7 nM

CCNc1cc(NC(=O)N2CCCc3cc(CN(C)C(=O)CN(C)C)c(C=O)nc32)ncc1C#N [N-(5-cyano-4-(ethylamino)pyridin-2-yl)-6-((2-(dimethylamino)-N-methylacetamido)methyl)-7-formyl-3,4-dihydro-1,8-naphthyridine-1(2H)-carboxamide]
IC50 [1, 3]: 0.2 nM
IC50 [2, 4]: 3.6 nM

CC(=O)N(C)Cc1cc2c(nc1C=O)N(C(=O)Nc1cc(OCC(C)C)c(C#N)cn1)CCC2 [N-(5-cyano-4-isobutoxypyridin-2-yl)-7-formyl-6-((N-methylacetamido)methyl)-3,4-dihydro-1,8-naphthyridine-1(2H)-carboxamide]
IC50 [1, 3]: 1.3 nM
IC50 [2, 4]: 6 nM

COC[C@@H](C)Nc1cc(NC(=O)N2CCCc3cc(CN4CCCC4=O)c(C=O)nc32)ncc1C#N [(R)-N-(5-cyano-4-((1-methoxypropan-2-yl)amino)pyridin-2-yl)-7-formyl-6-((2-oxopyrrolidin-1-yl)methyl)-3,4-dihydro-1,8-naphthyridine-1(2H)-carboxamide]
IC50 [1, 3]: 0.6 nM
IC50 [2, 4]: 4.8 nM

COc1cc(NC(=O)N2CCCc3cc(CN4CCCC4(C)C)c(C=O)nc32)ncc1C#N [N-(5-cyano-4-methoxypyridin-2-yl)-6-((2,2-dimethylpyrrolidin-1-yl)methyl)-7-formyl-3,4-dihydro-1,8-naphthyridine-1(2H)-carboxamide]
IC50 [1, 3]: 440 nM
IC50 [2, 4]: > 3000 nM

N#Cc1cnc(NC(=O)N2CCCc3ccc(C=O)nc32)cc1Cl [Example 24, N-(4-chloro-5-cyanopyridin-2-yl)-7-formyl-3,4-dihydro-1,8-naphthyridine-1(2H)-carboxamide]
IC50 [1, 5]: 24 nM
IC50 [2, 6]: > 3000 nM

CCOc1cc(NC(=O)N2CCCc3cc(CN4CCN(C)CC4=O)c(C=O)nc32)ncc1C#N [N-(5-cyano-4-ethoxypyridin-2-yl)-7-formyl-6-((4-methyl-2-oxopiperazin-1-yl)methyl)-3,4-dihydro-1,8-naphthyridine-1(2H)-carboxamide]
IC50 [1, 3]: 1.3 nM
IC50 [2, 4]: 6.9 nM

CC(C)Oc1cc(NC(=O)N2CCCc3cc(CN4C[C@@H](N(C)C)CC4=O)c(C=O)nc32)ncc1C#N [(S)-N-(5-cyano-4-isopropoxypyridin-2-yl)-6-((4-(dimethylamino)-2-oxopyrrolidin-1-yl)methyl)-7-formyl-3,4-dihydro-1,8-naphthyridine-1(2H)-carboxamide]
IC50 [1, 3]: 0.2 nM
IC50 [2, 4]: 11.1 nM

COCCNc1cc(NC(=O)N2CCC(O)c3cc(CN4CCN(C)CC4=O)c(C=O)nc32)ncc1C#N (stereo not shown) [N-(5-cyano-4-((2-methoxyethyl)amino)pyridin-2-yl)-7-formyl-4-hydroxy-6-((4-methyl-2-oxopiperazin-1-yl)methyl)-3,4-dihydro-1,8-naphthyridine-1(2H)-carboxamide]
IC50 [1, 3]: 1.8 nM
IC50 [2, 4]: 51.3 nM

COc1cc(NC(=O)N2CCCc3cc(CN4CCCC4=O)c(C=O)nc32)ncc1C(F)(F)F [7-formyl-N-(4-methoxy-5-(trifluoromethyl)pyridin-2-yl)-6-((2-oxopyrrolidin-1-yl)methyl)-3,4-dihydro-1,8-naphthyridine-1(2H)-carboxamide]
IC50 [1, 3]: 46.5 nM
IC50 [2, 4]: 138 nM
